Experimental findings from ChEMBL document CHEMBL1144232, “Tricyclic azepine derivatives as selective brain penetrant 5-HT6 receptor antagonists” (Bioorg Med Chem Lett, 2008) are described below.

The structures appear in SMILES notation.

The subject of one data set is Liver microsomes. The data set can be described thus: Metabolic stability in rat liver microsomes assessed as intrinsic clearance at […] upto 30 mins. The settings on record: 0.5 h. In kind it is ADME, Microsome. Background: Liver microsomes are a subcellular fraction often used to study metabolism.
Data set [1] has as its target T1, 5-hydroxytryptamine receptor 6 (Homo sapiens, UniProt P50406). The data set can be described thus: Antagonist activity at 5HT6 receptor expressed in HeLa cells assessed as 5HT-induced cAMP accumulation by chemiluminescence assay. In kind it is functional, cell-based. On the technique in general: Cyclic AMP is a second messenger, typically raised through Gs and lowered through Gi signalling.

In data set [2] the target is T2, Cytochrome P450 3A4 (Homo sapiens, UniProt P08684). The data set can be described thus: Inhibition of human CYP3A4 by microtiter plate assays using N-N,diethyl-formamide as substrate.
Data set [3] deals with T2, Cytochrome P450 3A4. Description: Inhibition of human CYP3A4 by microtiter plate assays using PPR substrate.
Data set [4] deals with T1, 5-hydroxytryptamine receptor 6. Description: Antagonist activity at 5HT6 receptor. In kind it is functional.
The nature of data set [5]: Ratio of drug level in brain to blood in orally dosed rat after 4 hrs. The note with it: brain and blood, po.
Data set [6] addresses 5-hydroxytryptamine receptor 6 (Rattus norvegicus) (UniProt P31388). The data set can be described thus: Ex vivo displacement of [125I]258585 from 5HT6 receptor in po dosed rat striatum. In kind it is organism-based.
In data set [7] the target is 5-hydroxytryptamine receptor 2B (Homo sapiens, UniProt P41595). Description: Antagonist activity at 5HT2B receptor. In kind it is functional.
Data set [8] has as its target 5-hydroxytryptamine receptor 2A (Homo sapiens, UniProt P28223). Description: Antagonist activity at 5HT2A receptor. In kind it is functional.
Data set [9] addresses T3, 5-hydroxytryptamine receptor 2C (Homo sapiens, UniProt P28335).
T3 sequence (P28335 whole entry): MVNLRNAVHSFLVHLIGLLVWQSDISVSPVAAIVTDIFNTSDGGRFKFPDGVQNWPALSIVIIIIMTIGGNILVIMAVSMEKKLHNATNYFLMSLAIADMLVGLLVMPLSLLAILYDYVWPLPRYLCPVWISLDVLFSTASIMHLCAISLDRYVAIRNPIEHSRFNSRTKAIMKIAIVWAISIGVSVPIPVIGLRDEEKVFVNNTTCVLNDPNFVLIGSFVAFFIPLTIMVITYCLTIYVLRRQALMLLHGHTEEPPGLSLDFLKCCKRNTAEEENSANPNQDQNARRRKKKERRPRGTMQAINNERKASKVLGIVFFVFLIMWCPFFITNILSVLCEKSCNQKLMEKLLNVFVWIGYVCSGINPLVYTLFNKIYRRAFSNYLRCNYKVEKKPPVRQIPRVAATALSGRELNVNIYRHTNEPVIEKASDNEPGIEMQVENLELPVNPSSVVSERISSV
Description: Antagonist activity at 5HT2C receptor. In kind it is functional.

A further data set relates to Blood. Description: Drug level in rat blood at 1 mg/kg, po. The note with it: in vivo, read-out: Drug uptake. In kind it is ADME, organism-based. Set-up: dose 1 mg/kg, route oral.

T1 sequence (P50406 whole entry): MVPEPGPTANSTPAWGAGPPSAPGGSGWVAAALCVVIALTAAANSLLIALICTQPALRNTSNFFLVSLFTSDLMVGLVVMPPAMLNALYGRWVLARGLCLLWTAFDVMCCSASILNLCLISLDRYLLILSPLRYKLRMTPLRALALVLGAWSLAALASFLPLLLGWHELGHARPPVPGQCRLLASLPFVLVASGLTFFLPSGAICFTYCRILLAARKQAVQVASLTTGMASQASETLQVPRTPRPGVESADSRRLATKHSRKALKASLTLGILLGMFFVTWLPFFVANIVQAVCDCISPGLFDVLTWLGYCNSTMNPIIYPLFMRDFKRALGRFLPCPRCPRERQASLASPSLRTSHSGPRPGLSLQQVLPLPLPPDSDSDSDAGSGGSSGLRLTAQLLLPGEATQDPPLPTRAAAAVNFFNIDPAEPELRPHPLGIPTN
T2 sequence (P08684 whole entry): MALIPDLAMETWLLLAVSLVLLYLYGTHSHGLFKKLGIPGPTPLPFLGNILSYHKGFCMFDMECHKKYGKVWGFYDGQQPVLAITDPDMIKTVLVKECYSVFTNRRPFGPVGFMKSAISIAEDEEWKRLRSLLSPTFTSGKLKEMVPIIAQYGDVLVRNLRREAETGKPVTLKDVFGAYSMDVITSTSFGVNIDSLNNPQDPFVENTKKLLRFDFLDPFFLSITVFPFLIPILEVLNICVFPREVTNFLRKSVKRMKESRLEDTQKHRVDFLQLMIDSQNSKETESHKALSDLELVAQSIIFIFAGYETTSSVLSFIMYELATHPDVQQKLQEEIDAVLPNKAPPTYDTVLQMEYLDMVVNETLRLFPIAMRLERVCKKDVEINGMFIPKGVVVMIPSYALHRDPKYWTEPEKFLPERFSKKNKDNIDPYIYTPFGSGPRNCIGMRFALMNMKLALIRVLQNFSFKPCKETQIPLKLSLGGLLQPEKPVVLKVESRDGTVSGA
5-hydroxytryptamine receptor 2B, sequence (P41595 whole entry): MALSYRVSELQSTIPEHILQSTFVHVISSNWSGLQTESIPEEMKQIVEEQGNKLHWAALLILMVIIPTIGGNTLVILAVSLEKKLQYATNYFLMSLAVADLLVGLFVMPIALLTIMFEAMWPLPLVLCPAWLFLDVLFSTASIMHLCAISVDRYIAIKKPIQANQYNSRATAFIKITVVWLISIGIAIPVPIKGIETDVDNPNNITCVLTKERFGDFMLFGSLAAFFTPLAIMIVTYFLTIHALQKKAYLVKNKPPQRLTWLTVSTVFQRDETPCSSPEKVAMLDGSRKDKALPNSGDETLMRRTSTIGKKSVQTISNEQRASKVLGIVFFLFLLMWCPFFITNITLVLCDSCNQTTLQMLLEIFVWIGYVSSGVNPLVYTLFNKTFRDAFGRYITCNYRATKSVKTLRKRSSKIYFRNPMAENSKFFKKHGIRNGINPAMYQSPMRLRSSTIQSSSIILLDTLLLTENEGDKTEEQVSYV
5-hydroxytryptamine receptor 2A, sequence (P28223 whole entry): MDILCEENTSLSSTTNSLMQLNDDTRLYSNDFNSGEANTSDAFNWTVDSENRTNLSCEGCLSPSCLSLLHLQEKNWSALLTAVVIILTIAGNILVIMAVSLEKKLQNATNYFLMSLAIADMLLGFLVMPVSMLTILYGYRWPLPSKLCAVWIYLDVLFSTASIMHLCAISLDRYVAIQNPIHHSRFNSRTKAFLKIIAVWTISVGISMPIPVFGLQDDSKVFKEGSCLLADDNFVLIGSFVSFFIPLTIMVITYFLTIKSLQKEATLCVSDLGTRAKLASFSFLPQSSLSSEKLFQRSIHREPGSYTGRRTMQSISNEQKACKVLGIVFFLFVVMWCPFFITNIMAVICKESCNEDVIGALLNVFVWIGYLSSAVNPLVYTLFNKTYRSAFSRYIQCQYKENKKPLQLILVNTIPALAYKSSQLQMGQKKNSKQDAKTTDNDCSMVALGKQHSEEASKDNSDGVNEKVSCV
5-hydroxytryptamine receptor 6 (Rattus norvegicus), sequence (P31388 whole entry): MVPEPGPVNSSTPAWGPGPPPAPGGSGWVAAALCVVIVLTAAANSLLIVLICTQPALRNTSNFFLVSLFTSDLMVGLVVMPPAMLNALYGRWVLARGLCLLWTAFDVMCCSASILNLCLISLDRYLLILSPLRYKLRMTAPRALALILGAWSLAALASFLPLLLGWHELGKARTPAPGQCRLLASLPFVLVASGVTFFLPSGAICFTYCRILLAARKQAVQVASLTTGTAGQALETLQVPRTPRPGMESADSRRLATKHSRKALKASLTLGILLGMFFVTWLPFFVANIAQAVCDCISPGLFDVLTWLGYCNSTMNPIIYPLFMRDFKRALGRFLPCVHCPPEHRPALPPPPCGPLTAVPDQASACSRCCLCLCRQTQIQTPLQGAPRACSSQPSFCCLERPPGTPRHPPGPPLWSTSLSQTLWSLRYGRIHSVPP

For the molecule `CN1CCc2cc3ccn(S(=O)(=O)c4cccc(Cl)c4)c3cc2CC1`, the CL with Liver microsomes came to 22 mL/min/g. The Ki (in general, a dissociation constant, usually derived from enzyme kinetics or from competition with a known ligand) in [1] was 1.26 nM. The IC50 (commonly the concentration at which inhibition is half-maximal) came out at 15000 nM on Cytochrome P450 3A4 [2] and 71000 nM at Cytochrome P450 3A4 [3].
In data set [4], `O=S(=O)(Nc1ccc2c(c1)CCNCC2)c1ccccc1` showed a Ki of 2 nM. The Kp – broadly, the ratio of the level in a tissue or fluid to that in plasma or blood – at 4 h in [5] was determined as 0.5.
As for `COc1cccc(S(=O)(=O)n2ccc3cc4c(cc32)CCNCC4)c1`, the CL in the data set with Liver microsomes turned out to be 2.7 mL/min/g. Further, the Ki in data set [1] was 2 nM. Further, the IC50 against Cytochrome P450 3A4 [2] was found to be 17000 nM; at Cytochrome P450 3A4 [3] it was 27000 nM.
As for `O=S(=O)(c1ccccc1)n1cc(Cl)c2cc3c(cc21)CCNCC3`, the CL with Liver microsomes amounted to 1.7 mL/min/g. Also, the Ki in [1] is 2.51 nM; in [7] it was 398 nM; in data set [8] it was 25.1 nM; in data set [9], 158 nM. The ED50 (usually the dose that gives a 50% effect, or the effect in half of the subjects) in data set [6] turned out to be 4 mg/kg. The results for the IC50 at Cytochrome P450 3A4 [2] and at Cytochrome P450 3A4 [3] were 12000 nM and 19000 nM, respectively.
For the molecule `O=S(=O)(c1cccc(Cl)c1)n1ccc2cc3c(cc21)CCNCC3`, in the data set with Blood, the concentration came out at 38 nM. Moreover, the CL in the data set with Liver microsomes stood at 2.5 mL/min/g. Besides, in [1], the Ki is 1.58 nM. Further, the IC50 came to 3000 nM at Cytochrome P450 3A4 [2] and 7000 nM against Cytochrome P450 3A4 [3]. Besides, the Kp at 4 h in data set [5] amounted to 5.
For the molecule `O=S(=O)(c1cccc(Cl)c1)n1cc(Cl)c2cc3c(cc21)CCNCC3`, the CL with Liver microsomes is less than 0.5 mL/min/g. Also, in data set [1], the Ki is 3.98 nM.
Take `O=S(=O)(c1ccccc1Cl)n1ccc2cc3c(cc21)CCNCC3`: in the data set with Liver microsomes, the CL came out at 4.5 mL/min/g. The Ki in data set [1] is 7.94 nM. Further, the IC50 came out at 2500 nM against Cytochrome P450 3A4 [2] and 3200 nM against Cytochrome P450 3A4 [3].
For the molecule `O=S(=O)(c1ccccc1)n1ccc2cc3c(cc21)CCNCC3`, the CL in the data set with Liver microsomes came to 7.1 mL/min/g. Also, the inhibition constant Ki in data set [1] is 1.58 nM. The IC50 came to 12000 nM against Cytochrome P450 3A4 [2] and 20000 nM against Cytochrome P450 3A4 [3].
In the case of `O=S(=O)(c1ccsc1)n1ccc2cc3c(cc21)CCNCC3`, in the data set on Liver microsomes, the CL came out at 21 mL/min/g. Besides, the Ki in data set [1] was 7.94 nM. Also, the IC50 against Cytochrome P450 3A4 [2] came out at 9700 nM; against Cytochrome P450 3A4 [3], 22000 nM.
In the case of `O=S(=O)(c1ccccc1)N1CCCc2cc3c(cc21)CCNCC3`, the Ki in data set [1] was 39.8 nM.
As to `O=S(=O)(c1ccccn1)n1ccc2cc3c(cc21)CCNCC3`, in the data set on Liver microsomes, the CL is 3.6 mL/min/g. Besides, in data set [1], the Ki is 100 nM. The IC50 against Cytochrome P450 3A4 [2] stood at 39000 nM; at Cytochrome P450 3A4 [3] it was 77000 nM.
For `Cn1cc(S(=O)(=O)c2ccccc2)c2cc3c(cc21)CCNCC3`, the CL in the data set on Liver microsomes was found to be 4.6 mL/min/g. Further, the Ki in [1] is 2 nM. In addition, the figures for the IC50 against Cytochrome P450 3A4 [2] and on Cytochrome P450 3A4 [3] were 7800 nM and 13000 nM, respectively.
Regarding `O=S(=O)(c1ccc(Cl)cc1)n1ccc2cc3c(cc21)CCNCC3`, the Ki in data set [1] was 7.94 nM.
